According to the kinase profiling compilation of Christmann-Franck et al. (2016):

Assays:
Test in all cases: radiometric filter-binding kinase assay
TBK1 (human) = TBK1 (human) (UniProt Q9UHD2)
IKBKE (human) = IKBKE (human) (UniProt Q14164)
MAPKAPK2 (human) = MAPKAPK2 (human) (UniProt P49137)
PAK4 (human) = PAK4 (human) (UniProt O96013)
MARK1 (human) = MARK1 (human) (UniProt Q9P0L2)
[1] = tested on: RPS6KB1 (human), P23443 [T412E]
MAP3K11 (human) = MAP3K11 (human) (UniProt Q16584)
MKNK1 (human) = MKNK1 (human) (UniProt Q9BUB5)
CaMK1 (human) = CaMK1 (human) (UniProt Q14012)
CaMK1 (human), sequence (Q14012 whole entry, looked up): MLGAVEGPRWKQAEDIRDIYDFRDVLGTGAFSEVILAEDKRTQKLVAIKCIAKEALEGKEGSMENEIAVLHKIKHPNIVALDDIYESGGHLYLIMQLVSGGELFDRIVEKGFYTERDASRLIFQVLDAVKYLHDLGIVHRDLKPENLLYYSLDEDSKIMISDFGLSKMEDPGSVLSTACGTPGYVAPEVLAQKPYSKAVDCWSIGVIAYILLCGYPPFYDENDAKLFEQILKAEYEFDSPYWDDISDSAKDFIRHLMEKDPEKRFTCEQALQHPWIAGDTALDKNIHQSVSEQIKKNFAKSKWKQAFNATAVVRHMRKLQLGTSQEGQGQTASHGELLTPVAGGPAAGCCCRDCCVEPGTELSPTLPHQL

NUAK1 (human) = NUAK1 (human) (UniProt O60285)
JAK2 JH1 JH2 (human) = JAK2 JH1 JH2 (human) (UniProt O60674)
JAK2 JH1 JH2 (human), sequence (O60674 whole entry, looked up): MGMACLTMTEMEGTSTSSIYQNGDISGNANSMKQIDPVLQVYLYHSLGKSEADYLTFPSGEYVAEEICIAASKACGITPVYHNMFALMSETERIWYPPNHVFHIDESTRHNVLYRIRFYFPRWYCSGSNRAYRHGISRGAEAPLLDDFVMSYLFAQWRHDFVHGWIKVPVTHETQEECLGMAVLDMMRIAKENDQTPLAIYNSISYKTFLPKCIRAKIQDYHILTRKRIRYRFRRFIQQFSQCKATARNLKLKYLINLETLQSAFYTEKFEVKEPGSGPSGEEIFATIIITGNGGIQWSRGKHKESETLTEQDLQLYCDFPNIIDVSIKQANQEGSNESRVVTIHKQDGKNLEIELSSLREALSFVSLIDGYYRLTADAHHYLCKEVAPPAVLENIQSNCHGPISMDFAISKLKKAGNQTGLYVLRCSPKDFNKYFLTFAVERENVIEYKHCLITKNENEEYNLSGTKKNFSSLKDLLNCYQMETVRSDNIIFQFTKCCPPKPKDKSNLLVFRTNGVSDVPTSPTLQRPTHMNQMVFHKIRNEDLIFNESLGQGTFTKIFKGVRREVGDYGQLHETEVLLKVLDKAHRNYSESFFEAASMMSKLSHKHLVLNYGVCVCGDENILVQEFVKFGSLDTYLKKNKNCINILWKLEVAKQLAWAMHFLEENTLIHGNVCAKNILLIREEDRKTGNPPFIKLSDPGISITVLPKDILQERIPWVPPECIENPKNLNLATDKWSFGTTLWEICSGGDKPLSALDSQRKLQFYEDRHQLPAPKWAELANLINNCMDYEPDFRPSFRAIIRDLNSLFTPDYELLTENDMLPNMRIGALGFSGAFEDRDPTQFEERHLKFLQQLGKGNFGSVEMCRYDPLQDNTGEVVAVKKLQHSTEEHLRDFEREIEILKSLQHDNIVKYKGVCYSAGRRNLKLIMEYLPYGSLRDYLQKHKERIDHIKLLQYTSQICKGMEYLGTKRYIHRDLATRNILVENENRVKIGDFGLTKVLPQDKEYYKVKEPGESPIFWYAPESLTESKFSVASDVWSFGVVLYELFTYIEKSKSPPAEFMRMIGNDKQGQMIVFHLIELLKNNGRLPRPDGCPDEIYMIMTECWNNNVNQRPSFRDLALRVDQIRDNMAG

IRAK4 (human) = IRAK4 (human) (UniProt Q9NWZ3)
NEK6 (human) = NEK6 (human) (UniProt Q9HC98)
NEK6 (human), sequence (Q9HC98 whole entry, looked up): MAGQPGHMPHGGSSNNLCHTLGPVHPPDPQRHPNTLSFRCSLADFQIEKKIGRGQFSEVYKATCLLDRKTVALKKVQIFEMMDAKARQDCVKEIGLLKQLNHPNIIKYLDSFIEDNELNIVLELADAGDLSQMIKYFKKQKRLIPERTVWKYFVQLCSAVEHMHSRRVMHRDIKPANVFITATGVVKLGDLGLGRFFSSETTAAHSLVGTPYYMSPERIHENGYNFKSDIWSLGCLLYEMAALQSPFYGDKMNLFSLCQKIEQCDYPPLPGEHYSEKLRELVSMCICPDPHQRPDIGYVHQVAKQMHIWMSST

MAPK3 (human) = MAPK3 (human) (UniProt P27361)
MARK2 (human) = MARK2 (human) (UniProt Q7KZI7)
CSNK1D (human) = CSNK1D (human) (UniProt P48730)
RPS6KA1 KD1 KD2 (human) = RPS6KA1 KD1 KD2 (human) (UniProt Q15418)
RPS6KA1 KD1 KD2 (human), sequence (Q15418 whole entry, looked up): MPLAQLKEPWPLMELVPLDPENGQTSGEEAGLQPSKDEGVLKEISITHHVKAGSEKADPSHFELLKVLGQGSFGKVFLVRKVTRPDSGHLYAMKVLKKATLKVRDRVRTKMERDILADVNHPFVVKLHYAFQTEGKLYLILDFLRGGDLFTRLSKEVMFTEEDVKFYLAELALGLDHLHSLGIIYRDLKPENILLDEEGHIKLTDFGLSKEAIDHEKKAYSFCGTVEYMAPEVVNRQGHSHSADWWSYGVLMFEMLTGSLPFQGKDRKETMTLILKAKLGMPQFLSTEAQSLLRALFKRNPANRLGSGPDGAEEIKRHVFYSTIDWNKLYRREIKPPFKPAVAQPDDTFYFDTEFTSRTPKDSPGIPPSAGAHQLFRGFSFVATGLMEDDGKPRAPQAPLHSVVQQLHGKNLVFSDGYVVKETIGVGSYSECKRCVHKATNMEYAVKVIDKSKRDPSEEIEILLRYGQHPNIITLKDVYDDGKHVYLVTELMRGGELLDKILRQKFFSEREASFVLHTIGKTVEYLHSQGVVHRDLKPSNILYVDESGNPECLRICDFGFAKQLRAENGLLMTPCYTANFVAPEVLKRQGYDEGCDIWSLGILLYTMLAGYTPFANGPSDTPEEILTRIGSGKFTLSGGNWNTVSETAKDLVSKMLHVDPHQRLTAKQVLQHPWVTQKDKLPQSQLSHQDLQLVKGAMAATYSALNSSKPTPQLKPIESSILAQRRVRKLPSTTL

NTRK1 (human) = NTRK1 (human) (UniProt P04629)
NTRK1 (human), sequence (P04629 whole entry, looked up): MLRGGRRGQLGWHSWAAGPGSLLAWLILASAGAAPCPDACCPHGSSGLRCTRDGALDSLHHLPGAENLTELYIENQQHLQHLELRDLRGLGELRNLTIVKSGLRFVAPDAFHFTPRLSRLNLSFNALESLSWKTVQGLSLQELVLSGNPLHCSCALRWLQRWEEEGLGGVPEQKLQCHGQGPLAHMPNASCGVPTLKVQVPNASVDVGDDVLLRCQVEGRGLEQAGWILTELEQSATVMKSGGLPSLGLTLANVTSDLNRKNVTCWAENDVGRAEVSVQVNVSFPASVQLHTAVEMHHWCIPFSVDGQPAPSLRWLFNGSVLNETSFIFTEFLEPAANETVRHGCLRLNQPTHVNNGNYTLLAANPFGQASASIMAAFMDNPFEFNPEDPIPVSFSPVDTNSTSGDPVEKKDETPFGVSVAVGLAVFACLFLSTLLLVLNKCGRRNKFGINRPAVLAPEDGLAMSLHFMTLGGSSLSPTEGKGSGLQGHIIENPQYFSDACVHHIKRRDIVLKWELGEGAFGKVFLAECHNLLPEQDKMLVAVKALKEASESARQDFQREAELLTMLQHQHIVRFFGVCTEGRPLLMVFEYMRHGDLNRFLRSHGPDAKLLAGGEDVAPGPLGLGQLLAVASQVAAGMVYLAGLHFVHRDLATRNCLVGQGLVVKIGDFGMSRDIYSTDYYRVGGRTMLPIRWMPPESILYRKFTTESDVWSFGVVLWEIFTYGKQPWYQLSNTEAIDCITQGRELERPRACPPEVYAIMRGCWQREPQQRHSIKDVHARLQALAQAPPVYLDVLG

MAPK8 (human) = MAPK8 (human) (UniProt P45983)
[2] = tested on: AKT1 (human), P31749 [S473D]
STK3 (human) = STK3 (human) (UniProt Q13188)
STK3 (human), sequence (Q13188 whole entry, looked up): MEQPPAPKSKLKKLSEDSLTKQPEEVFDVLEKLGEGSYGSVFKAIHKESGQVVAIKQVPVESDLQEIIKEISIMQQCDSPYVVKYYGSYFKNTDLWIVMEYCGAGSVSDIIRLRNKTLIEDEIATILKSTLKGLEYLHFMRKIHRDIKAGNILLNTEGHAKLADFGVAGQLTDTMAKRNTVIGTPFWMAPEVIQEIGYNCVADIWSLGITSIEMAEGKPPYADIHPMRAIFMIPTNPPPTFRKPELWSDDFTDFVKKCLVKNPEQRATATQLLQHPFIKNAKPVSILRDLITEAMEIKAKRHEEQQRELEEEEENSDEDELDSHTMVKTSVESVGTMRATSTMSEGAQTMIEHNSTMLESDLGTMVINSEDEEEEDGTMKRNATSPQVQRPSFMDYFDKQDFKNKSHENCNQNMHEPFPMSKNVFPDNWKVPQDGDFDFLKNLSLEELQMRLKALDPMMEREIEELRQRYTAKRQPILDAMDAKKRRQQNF

MAPK9 (human) = MAPK9 (human) (UniProt P45984)
PIM1 (human) = PIM1 (human) (UniProt P11309)
PIM1 (human), sequence (P11309 whole entry, looked up): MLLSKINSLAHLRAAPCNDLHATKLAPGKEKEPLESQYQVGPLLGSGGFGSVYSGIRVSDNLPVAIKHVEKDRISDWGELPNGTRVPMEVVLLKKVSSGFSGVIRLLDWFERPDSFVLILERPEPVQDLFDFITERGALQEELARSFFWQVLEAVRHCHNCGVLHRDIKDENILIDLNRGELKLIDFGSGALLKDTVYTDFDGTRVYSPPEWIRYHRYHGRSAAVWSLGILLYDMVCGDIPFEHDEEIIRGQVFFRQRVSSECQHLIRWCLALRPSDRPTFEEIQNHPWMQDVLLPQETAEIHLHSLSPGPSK

IKBKB (human) = IKBKB (human) (UniProt O14920)
IKBKB (human), sequence (O14920 whole entry, looked up): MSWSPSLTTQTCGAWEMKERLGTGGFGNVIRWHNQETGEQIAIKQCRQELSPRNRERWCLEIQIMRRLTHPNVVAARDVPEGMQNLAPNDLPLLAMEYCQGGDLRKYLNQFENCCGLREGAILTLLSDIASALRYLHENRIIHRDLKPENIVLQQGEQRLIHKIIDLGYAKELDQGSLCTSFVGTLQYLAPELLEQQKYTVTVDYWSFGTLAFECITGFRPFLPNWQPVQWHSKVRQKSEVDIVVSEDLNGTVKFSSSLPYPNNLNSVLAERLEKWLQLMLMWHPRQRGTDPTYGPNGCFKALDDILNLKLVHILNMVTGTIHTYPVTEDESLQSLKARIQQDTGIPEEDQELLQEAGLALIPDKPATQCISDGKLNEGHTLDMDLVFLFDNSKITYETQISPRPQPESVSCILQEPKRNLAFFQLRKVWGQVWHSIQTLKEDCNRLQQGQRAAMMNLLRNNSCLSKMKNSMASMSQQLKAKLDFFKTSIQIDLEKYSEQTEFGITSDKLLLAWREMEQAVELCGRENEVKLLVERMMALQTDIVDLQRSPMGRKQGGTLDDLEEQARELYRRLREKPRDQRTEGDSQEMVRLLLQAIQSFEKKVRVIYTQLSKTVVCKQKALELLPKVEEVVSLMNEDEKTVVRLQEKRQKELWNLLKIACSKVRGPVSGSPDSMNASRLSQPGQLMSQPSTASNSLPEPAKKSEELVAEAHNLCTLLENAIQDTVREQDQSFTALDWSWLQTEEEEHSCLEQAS

MAPK14 (human) = MAPK14 (human) (UniProt Q16539)
NEK2 (human) = NEK2 (human) (UniProt P51955)
MAP2K1 (human) = MAP2K1 (human) (UniProt Q02750)
CHEK2 (human) = CHEK2 (human) (UniProt O96017)
DYRK1A (human) = DYRK1A (human) (UniProt Q13627)
TTK (human) = TTK (human) (UniProt P33981)
DYRK3 (human) = DYRK3 (human) (UniProt O43781)
EPHB2 (human) = EPHB2 (human) (UniProt P29323)
MKNK2 (human) = MKNK2 (human) (UniProt Q9HBH9)
MARK3 (human) = MARK3 (human) (UniProt P27448)
[3] = biological target: STK11 CAB39 STRADA (human) (UniProt Q9Y376+Q7RTN6+Q15831)

- residual activity (TBK1 (human); compound 0.1 µM): 98%
- residual activity (TBK1 (human); compound 1.0 µM): 91%
- residual activity (TBK1 (human); compound 10.0 µM): 47%
- residual activity (IKBKE (human); compound 0.1 µM): 109%
- residual activity (IKBKE (human); compound 1.0 µM): 86%
- residual activity (IKBKE (human); compound 10.0 µM): 31%
- residual activity (MAPKAPK2 (human); compound 0.1 µM): 102%
- residual activity (MAPKAPK2 (human); compound 1.0 µM): 101%
- residual activity (MAPKAPK2 (human); compound 10.0 µM): 94%
- residual activity (PAK4 (human); compound 0.1 µM): 65%
- residual activity (PAK4 (human); compound 1.0 µM): 18%
- residual activity (PAK4 (human); compound 10.0 µM): 7%
- residual activity (MARK1 (human); compound 0.1 µM): 78%
- residual activity (MARK1 (human); compound 1.0 µM): 66%
- residual activity (MARK1 (human); compound 10.0 µM): 37%
- residual activity ([1]; compound 0.1 µM): 112%
- residual activity ([1]; compound 1.0 µM): 90%
- residual activity ([1]; compound 10.0 µM): 39%
- residual activity (MAP3K11 (human); compound 0.1 µM): 74%
- residual activity (MAP3K11 (human); compound 1.0 µM): 19%
- residual activity (MAP3K11 (human); compound 10.0 µM): 4%
- residual activity (MKNK1 (human); compound 0.1 µM): 107%
- residual activity (MKNK1 (human); compound 1.0 µM): 114%
- residual activity (MKNK1 (human); compound 10.0 µM): 99%
- residual activity (CaMK1 (human); compound 0.1 µM): 107%
- residual activity (CaMK1 (human); compound 1.0 µM): 90%
- residual activity (CaMK1 (human); compound 10.0 µM): 38%
- residual activity (NUAK1 (human); compound 0.1 µM): 81%
- residual activity (NUAK1 (human); compound 1.0 µM): 24%
- residual activity (NUAK1 (human); compound 10.0 µM): 6%
- residual activity (JAK2 JH1 JH2 (human); compound 0.1 µM): 101%
- residual activity (JAK2 JH1 JH2 (human); compound 1.0 µM): 90%
- residual activity (JAK2 JH1 JH2 (human); compound 10.0 µM): 43%
- residual activity (IRAK4 (human); compound 0.1 µM): 127%
- residual activity (IRAK4 (human); compound 1.0 µM): 92%
- residual activity (IRAK4 (human); compound 10.0 µM): 44%
- residual activity (NEK6 (human); compound 0.1 µM): 108%
- residual activity (NEK6 (human); compound 1.0 µM): 98%
- residual activity (NEK6 (human); compound 10.0 µM): 135%
- residual activity (MAPK3 (human); compound 1.0 µM): 58%
- residual activity (MAPK3 (human); compound 10.0 µM): 16%
- residual activity (MARK2 (human); compound 0.1 µM): 103%
- residual activity (MARK2 (human); compound 1.0 µM): 65%
- residual activity (MARK2 (human); compound 10.0 µM): 28%
- residual activity (CSNK1D (human); compound 0.1 µM): 109%
- residual activity (CSNK1D (human); compound 1.0 µM): 73%
- residual activity (CSNK1D (human); compound 10.0 µM): 18%
- residual activity (RPS6KA1 KD1 KD2 (human); compound 0.1 µM): 92%
- residual activity (RPS6KA1 KD1 KD2 (human); compound 1.0 µM): 65%
- residual activity (RPS6KA1 KD1 KD2 (human); compound 10.0 µM): 31%
- residual activity (NTRK1 (human); compound 0.1 µM): 92%
- residual activity (NTRK1 (human); compound 1.0 µM): 73%
- residual activity (NTRK1 (human); compound 10.0 µM): 28%
- residual activity (MAPK8 (human); compound 0.1 µM): 111%
- residual activity (MAPK8 (human); compound 1.0 µM): 69%
- residual activity (MAPK8 (human); compound 10.0 µM): 15%
- residual activity ([2]; compound 0.1 µM): 105%
- residual activity ([2]; compound 1.0 µM): 104%
- residual activity ([2]; compound 10.0 µM): 108%
- residual activity (STK3 (human); compound 0.1 µM): 108%
- residual activity (STK3 (human); compound 1.0 µM): 59%
- residual activity (STK3 (human); compound 10.0 µM): 21%
- residual activity (MAPK9 (human); compound 0.1 µM): 107%
- residual activity (MAPK9 (human); compound 1.0 µM): 82%
- residual activity (MAPK9 (human); compound 10.0 µM): 33%
- residual activity (PIM1 (human); compound 0.1 µM): 112%
- residual activity (PIM1 (human); compound 1.0 µM): 89%
- residual activity (PIM1 (human); compound 10.0 µM): 41%
- residual activity (IKBKB (human); compound 0.1 µM): 96%
- residual activity (IKBKB (human); compound 1.0 µM): 81%
- residual activity (IKBKB (human); compound 10.0 µM): 65%
- residual activity (MAPK14 (human); compound 0.1 µM): 110%
- residual activity (MAPK14 (human); compound 1.0 µM): 101%
- residual activity (MAPK14 (human); compound 10.0 µM): 59%
- residual activity (NEK2 (human); compound 0.1 µM): 88%
- residual activity (NEK2 (human); compound 1.0 µM): 74%
- residual activity (NEK2 (human); compound 10.0 µM): 44%
- residual activity (MAP2K1 (human); compound 0.1 µM): 90%
- residual activity (MAP2K1 (human); compound 1.0 µM): 86%
- residual activity (MAP2K1 (human); compound 10.0 µM): 17%
- residual activity (CHEK2 (human); compound 0.1 µM): 104%
- residual activity (CHEK2 (human); compound 1.0 µM): 37%
- residual activity (CHEK2 (human); compound 10.0 µM): 18%
- residual activity (DYRK1A (human); compound 0.1 µM): 72%
- residual activity (DYRK1A (human); compound 1.0 µM): 21%
- residual activity (DYRK1A (human); compound 10.0 µM): 5%
- residual activity (TTK (human); compound 0.1 µM): 87%
- residual activity (TTK (human); compound 1.0 µM): 55%
- residual activity (TTK (human); compound 10.0 µM): 24%
- residual activity (DYRK3 (human); compound 0.1 µM): 97%
- residual activity (DYRK3 (human); compound 1.0 µM): 76%
- residual activity (DYRK3 (human); compound 10.0 µM): 59%
- residual activity (EPHB2 (human); compound 0.1 µM): 90%
- residual activity (EPHB2 (human); compound 1.0 µM): 74%
- residual activity (EPHB2 (human); compound 10.0 µM): 24%
- residual activity (MKNK2 (human); compound 1.0 µM): 91%
- residual activity (MKNK2 (human); compound 10.0 µM): 66%
- residual activity (MARK3 (human); compound 0.1 µM): 104%
- residual activity (MARK3 (human); compound 1.0 µM): 69%
- residual activity (MARK3 (human); compound 10.0 µM): 26%
- residual activity ([3]; compound 0.1 µM): 105%
- residual activity ([3]; compound 1.0 µM): 57%
- residual activity ([3]; compound 10.0 µM): 23%
SMILES: NC(=O)c1cc2c(-c3cccc(-c4ccccc4)c3)cnc(N)c2s1
